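Compound exposure: 48 hours, 5 concentrations, 96-well plates. GI50 marks 50% less growth. TGI marks complete inhibition of growth.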
Experiments:
Assay in all cases: growth of human tumour cells (NCI), 48 h
RPMI-8226 leukemia = tested on: RPMI-8226 leukemia
HT29 colon = tested on: HT29 colon
SK-MEL-2 melanoma = tested on: SK-MEL-2 melanoma
SF-268 CNS = tested on: SF-268 CNS
SK-MEL-5 melanoma = tested on: SK-MEL-5 melanoma
MDA-MB-435 = tested on: MDA-MB-435
EKVX NSCLC = tested on: EKVX NSCLC
UACC-62 melanoma = tested on: UACC-62 melanoma
HOP-62 NSCLC = tested on: HOP-62 NSCLC
TK-10 renal = tested on: TK-10 renal

SMILES	TGI (RPMI-8226 leukemia) [µM]	TGI (HT29 colon) [µM]	TGI (SK-MEL-2 melanoma) [µM]	TGI (SF-268 CNS) [µM]	TGI (SK-MEL-5 melanoma) [µM]	TGI (MDA-MB-435) [µM]	TGI (EKVX NSCLC) [µM]	TGI (UACC-62 melanoma) [µM]	TGI (HOP-62 NSCLC) [µM]	TGI (TK-10 renal) [µM]	GI50 (RPMI-8226 leukemia) [µM]	GI50 (HT29 colon) [µM]	GI50 (SK-MEL-2 melanoma) [µM]	GI50 (SF-268 CNS) [µM]	GI50 (SK-MEL-5 melanoma) [µM]	GI50 (MDA-MB-435) [µM]	GI50 (EKVX NSCLC) [µM]	GI50 (UACC-62 melanoma) [µM]	GI50 (HOP-62 NSCLC) [µM]	GI50 (TK-10 renal) [µM]
OC1(c2ccc(Cl)cc2)c2ccccc2C2=NCc3ccccc3CN21 (stereo not given)	> 48.6	27.8	16.9	25.3	33.6	22.7	20.6	26.7	21.9	28.9										
CCOC(=O)C1=CN(C(=O)c2ccccc2)CCC1Cc1ccccc1 (stereo not given)	36.6	35.1	35.9	> 100	28.3	51	> 100	31.4	> 100	75.3										
Cc1ccc(CC(=O)Nc2ccc(NC(=O)CNC(=O)/C=C/c3ccc(-c4ccccc4)cc3)cc2C(=O)c2ccccc2)cc1	29.2	2.99	35.3	7.51	6.32	16.1	15.8	30.8	6.95	5.95										
Cc1nc2sccn2c1C(=O)OCCOCCOCCOCCOC(=O)c1c(C)nc2sccn12	> 100	> 100	> 100	> 100	35.5	> 100	> 100	> 100	> 100	> 100										
CSc1nc(=O)c(C#N)c(-c2ccccc2)n1C1OC(COC(C)=O)C(OC(C)=O)C(OC(C)=O)C1OC(C)=O (stereo not given)	> 100	> 100	> 100	> 100	> 100	> 100	> 100	> 100	> 100	> 100										
Cc1ccc(C2(c3ccc(C)c(O)c3C)CCN(C)CC2)c(C)c1O	> 100	> 100	75.9	> 100	> 100	> 100	> 100	> 100	> 100	74.4										
CC12CCC(C1)C(C)(C)C2OC(=O)c1ccccc1C(=O)O (stereo not given)	> 100	> 100	> 100	> 100	> 100	> 100	> 100	> 100	> 100	> 100										
CN(/N=C/c1ccc(Cl)c(Cl)c1)C1=NCCN1	60.9	> 100	43.6	> 100	30.7	44.6	> 100	35.4	37.7	> 100										
CCOC(=O)c1ccc(NC(NC(=O)CC)(C(F)(F)F)C(F)(F)F)cc1	> 100	> 100	> 100	> 100	> 100	> 100	> 100	> 100	> 100	> 100										
Clc1ccc(-c2nn3c(C45CC6CC(CC(C6)C4)C5)nnc3s2)cc1	> 100	> 100	> 100	> 100	> 100	> 100	> 100	> 100	> 100	> 100										
CN1CCN(c2c(O)c3c(c(O)c2Cl)C(=O)C=CC3=O)CC1	2.34	1.38	2.64	3.72	1.11	0.538	3.04	2.82	3.36	1.58										
COC1=C(OC)C(=O)C(Cc2c(Cl)nc3n2CCS3)=C(C)C1=O	26.9	35.6	32.2	41.3	23.9	29.2	26.3	26.4	29.1	32										
c1ccc(-c2nc3ccccc3n3nnnc23)cc1	> 100	> 100	> 100	> 100	> 100	> 100	> 100	> 100	> 100	> 100										
Cc1nc(N)nc(N)c1N1CCN(Cc2ccccc2)CC1	> 95.6	> 100	> 100	> 100	> 100	> 100	> 100	> 100	> 100	> 100										
Cc1nc2ccccc2cc1C[N+]12CN3CN(CN(C3)C1)C2	> 100	60.8	39.8	51	32.8	49.3	50	33.1	69.9	63.4										
N#CI1OC(C(F)(F)F)(C(F)(F)F)c2ccccc21	> 100	40.8	30.5	73.9	33.8	38.4	30.1	38.8	> 100	39.1										
Nc1ccc(-c2nc3cc(F)ccc3s2)cc1	> 100	> 100	> 100	> 100	> 100	> 100	> 46.6	> 100	39.2	> 93.1										
COC1=CCC2=C(CCN(C(=O)C3CCC3)C2Cc2ccc(OC)c(O)c2)C1 (stereo not given)	> 100	43.8	> 100	> 100	73.3	10.5	88.9	> 100	> 100	64.5										

SMILES	TGI (RPMI-8226 leukemia) [µM]	TGI (HT29 colon) [µM]	TGI (SK-MEL-2 melanoma) [µM]	TGI (SF-268 CNS) [µM]	TGI (SK-MEL-5 melanoma) [µM]	TGI (MDA-MB-435) [µM]	TGI (EKVX NSCLC) [µM]	TGI (UACC-62 melanoma) [µM]	TGI (HOP-62 NSCLC) [µM]	TGI (TK-10 renal) [µM]	GI50 (RPMI-8226 leukemia) [µM]	GI50 (HT29 colon) [µM]	GI50 (SK-MEL-2 melanoma) [µM]	GI50 (SF-268 CNS) [µM]	GI50 (SK-MEL-5 melanoma) [µM]	GI50 (MDA-MB-435) [µM]	GI50 (EKVX NSCLC) [µM]	GI50 (UACC-62 melanoma) [µM]	GI50 (HOP-62 NSCLC) [µM]	GI50 (TK-10 renal) [µM]
COC1CCC(n2c([C@@H]3CCCC(=O)N3c3ccc(F)c(F)c3)nc3cc(-c4c(C)noc4C)ccc32)CC1 (stereo not given in full)	8.21	25.2	35.5	56.4	18.6	82.7	> 100	16.1	> 100	12.7	0.703	2.54	11.4	14.6	5.81	8.01	3.97	2.52	4.46	2.46
Cc1ccc(Nc2nc(NS(=O)(=O)c3cc(C)c(Cl)cc3S)n[nH]2)cc1	> 100	> 100	> 100	> 100	> 100	> 100	> 100	> 100	> 100	> 100										
CCOC(=O)C12C(=O)CCN1CCc1ccccc1C2C (stereo not given)	> 100	> 100	> 100	> 100	> 100	> 100	> 100	> 100	> 100	> 100										
Cc1nn(C(=O)c2ccc(Cl)cc2)c2c1C(c1ccco1)SC(N)=N2 (stereo not given)	> 10	> 10	> 10	> 10	> 10	> 10	> 10	> 10	> 10	> 10										
c1csc(-c2nnc(C34CC5CC(CC(C5)C3)C4)o2)c1	77.5	36.3	55.4	> 100	30.8	> 100	> 100	> 100	> 100	> 100										
CCOC(=O)/C=C(/C(=O)OCC)n1ccc(=O)[nH]c1=O	11.3	36	30.4	39.6	31	24.4	23	25.7	35.7	10.5										
c1cn[nH]c1	> 10	> 10	> 10	> 10	> 10	> 10	> 10	> 10	> 10	> 10										
COc1cnnc2c(C)c(-c3ccccc3)nn12	> 100	> 100	> 100	> 100	> 100	> 100	> 100	> 100	> 100	> 100										
O=C(CC(=O)Nc1ccccc1Cl)NNC(Sc1ccccc1)c1cc(N=Nc2ccc(Br)cc2)ccc1O (stereo not given)	> 10	> 10	> 10	> 10	3.95	> 10	> 10	3.9	8.67	9.08										
O=C(c1ccccc1)n1[nH]c(=O)n(-c2ccc(Cl)cc2)c1=O	> 100	> 100	> 100	> 100	> 100	> 100	> 100	> 100	> 100	> 100										
CC(C)C(/C=C/c1ccccc1)=N\NC(=S)NN	> 100	> 100	> 100	> 100	> 100	> 100	> 100	> 100	> 100	> 100										
C/C(NC(=O)c1ccccc1)=C(/C(=O)c1ccccc1)[C@@H]1OC(C)(C)O[C@@H]1[C@H]1COC(C)(C)O1	47.7	86.3	54.9	> 100	35.6	39.9	48.4	> 100	> 100	> 100										
Cc1ccsc1/C=N/Nc1ccccn1	56.6	> 100	> 100	> 100	54.4	> 100	96.5	> 100	> 100	> 100										
O=C1C(CN2CCCC2)CCCC1CN1CCCC1 (stereo not given)	3.97	33.6	37.4	52.3	30.4	7.43	13.7	31.9	> 71.1	5.5										
CC(C)=CCC/C(C)=C/CC/C(C)=C/CSc1ccc(Cl)cc1C(=O)O	55.6	37.4	28.8	32.7	44.9	42.2	37	34.7	28.1	37.6										
CC(C)C[C@H](NC(=O)[C@H](CCc1ccccc1)NC(=O)c1ccc2ccccc2n1)B(O)O	> 39.1	0.144	0.0407	0.397	0.647	< 0.0123	3.27	1.2	0.658	0.407										
Cn1c(=O)c2[nH]c(-n3nc(-c4ccccc4)cc3N)nc2n(C)c1=O	> 100	> 100	47.2	> 100	61.9	> 100	> 100	27	> 100	> 100										
C=C(COC(=O)C(C)C)[C@H]1Oc2ccc(C(C)=O)cc2[C@@H]1OC(=O)C(C)C	> 100	> 100	> 100	> 100	> 100	> 100	> 100	> 100	> 100	> 100										

From PubChem BioAssay (NCI)
